Data: US20230233569A1 (Revolution Medicines, Inc., priority 2020, published 2023)

Tests used:
Assay in all cases: Disruption of BRAF RBD interaction with Ras (FRET / MOA assay, with Cyclophilin A)
Type in all cases: biochemical
KRAS G13C = KRAS G13C (Homo sapiens, UniProt P01116+P62937, G13C); conditions: KRAS G13C; read-out: KRAS G13C FRET data IC50
Source text: (§1) This protocol may also be executed substituting other Ras proteins or nucleotides.
(§2) The purpose of this biochemical assay was to measure the ability of test compounds to facilitate ternary complex formation between a nucleotide-loaded K-Ras isoform and Cyclophilin A; the resulting ternary complex disrupts binding to a BRAF^RBD construct, inhibiting K-Ras signaling through a RAF effector. Data is reported as IC50 values.
(§3) Compound was present in plate wells as a 10-point 3-fold dilution series starting at a final concentration of 30 μM. After incubation at 25° C. for 3 hours, a mixture of Anti-His Eu-W1024 and anti-GST allophycocyanin was then added to assay sample wells at final concentrations of 10 nM and 50 nM, respectively, and the reaction incubated for an additional 1.5 hours. […] Compounds that facilitate disruption of a K-Ras:RAF complex were identified as those eliciting a decrease in the TR-FRET ratio relative to DMSO control wells.
as §2, with “BRAF^RBDD” for “BRAF^RBD”

KRAS G12S = KRAS G12S (Homo sapiens, UniProt P01116+P62937, G12S); conditions: read-out: KRAS G12S FRET data, IC50
KRAS G12S, sequence (P01116 1-169 isoform P01116-2 G12S limits assumed): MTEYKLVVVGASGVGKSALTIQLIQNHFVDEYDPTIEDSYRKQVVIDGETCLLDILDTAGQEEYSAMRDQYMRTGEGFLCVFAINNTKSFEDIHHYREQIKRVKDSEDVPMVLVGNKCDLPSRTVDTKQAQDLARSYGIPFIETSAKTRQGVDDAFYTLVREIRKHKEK
KRAS G12S, sequence (P62937 whole entry): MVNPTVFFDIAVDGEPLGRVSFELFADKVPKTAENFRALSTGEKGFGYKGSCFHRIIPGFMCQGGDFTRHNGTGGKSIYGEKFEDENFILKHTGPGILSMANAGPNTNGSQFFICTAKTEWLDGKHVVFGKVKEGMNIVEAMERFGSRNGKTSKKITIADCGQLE
Source text: as §1, §2, §3
as §2, with “BRAF^RBDD” for “BRAF^RBD”

KRAS G12V = KRAS G12V (Homo sapiens, UniProt P01116+P62937, G12V); conditions: KRAS G12V; read-out: KRAS G12V FRET data IC50
KRAS G12V, sequence (P01116 1-169 isoform P01116-2 G12V limits assumed): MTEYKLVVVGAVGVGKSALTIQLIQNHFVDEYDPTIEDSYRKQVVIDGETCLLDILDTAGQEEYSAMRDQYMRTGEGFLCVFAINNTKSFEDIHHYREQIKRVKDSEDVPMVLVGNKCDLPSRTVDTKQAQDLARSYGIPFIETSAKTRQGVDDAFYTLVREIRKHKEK
KRAS G12V, sequence (P62937 whole entry): as the sequence (P62937 whole entry) above
Source text: as §1, §2, §3
as §2, with “BRAF^RBDD” for “BRAF^RBD”

KRAS G12C = KRAS G12C (Homo sapiens, UniProt P01116+P62937, G12C); conditions: KRAS G12C; read-out: KRAS G12C FRET data IC50
KRAS G12C, sequence (P01116 1-169 isoform P01116-2 G12C): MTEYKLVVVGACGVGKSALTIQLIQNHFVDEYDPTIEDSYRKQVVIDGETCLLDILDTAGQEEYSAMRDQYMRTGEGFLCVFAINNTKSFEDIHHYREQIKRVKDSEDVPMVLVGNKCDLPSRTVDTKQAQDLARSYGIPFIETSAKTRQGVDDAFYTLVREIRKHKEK
KRAS G12C, sequence (P62937 whole entry): as the sequence (P62937 whole entry) above
Source text: as §1, §2, §3
as §2, with “BRAF^RBDD” for “BRAF^RBD”

KRAS WT = KRAS WT (Homo sapiens, UniProt P01116+P62937); conditions: KRAS WT; read-out: KRAS WT FRET data IC50
KRAS WT, sequence (P01116 1-169 isoform P01116-2 limits assumed): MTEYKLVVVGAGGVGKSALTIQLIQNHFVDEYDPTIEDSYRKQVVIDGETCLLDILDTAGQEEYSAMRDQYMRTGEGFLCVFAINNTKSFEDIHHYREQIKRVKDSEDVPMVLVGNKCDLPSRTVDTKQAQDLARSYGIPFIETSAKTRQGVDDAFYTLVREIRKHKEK
KRAS WT, sequence (P62937 whole entry): as the sequence (P62937 whole entry) above
Source text: as §1, §2, §3
as §2, with “BRAF^RBDD” for “BRAF^RBD”

KRAS G12D = KRAS G12D (Homo sapiens, UniProt P01116+P62937, G12D); conditions: read-out: KRAS G12D FRET data, IC50
KRAS G12D, sequence (P01116 1-169 isoform P01116-2 G12D limits assumed): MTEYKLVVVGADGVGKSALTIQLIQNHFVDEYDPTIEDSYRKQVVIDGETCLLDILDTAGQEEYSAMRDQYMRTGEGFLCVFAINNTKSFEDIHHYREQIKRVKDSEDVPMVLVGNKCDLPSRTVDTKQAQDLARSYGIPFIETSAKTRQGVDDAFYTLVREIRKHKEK
KRAS G12D, sequence (P62937 whole entry): as the sequence (P62937 whole entry) above
Source text: as §1, §2, §3
as §2, with “BRAF^RBDD” for “BRAF^RBD”

KRAS G13C, sequence (P01116 1-169 isoform P01116-2 G13C): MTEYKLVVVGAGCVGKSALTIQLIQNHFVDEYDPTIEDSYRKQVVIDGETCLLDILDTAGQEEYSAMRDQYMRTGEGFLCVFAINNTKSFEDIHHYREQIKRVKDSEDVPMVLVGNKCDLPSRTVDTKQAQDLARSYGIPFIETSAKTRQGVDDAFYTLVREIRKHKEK
KRAS G13C, sequence (P62937 whole entry): as the sequence (P62937 whole entry) above

| SMILES | IC50 (KRAS G13C) [nM] | IC50 (KRAS G12S) [nM] | IC50 (KRAS G12V) [nM] | IC50 (KRAS G12C) [nM] | IC50 (KRAS WT) [nM] | IC50 (KRAS G12D) [µM] |
| --- | --- | --- | --- | --- | --- | --- |
| C=CC(=O)N1C[C@H](C)[C@H](C(=O)N(C)[C@H](C(=O)N[C@H]2Cc3cc(O)cc(c3)-c3ccc4c(c3)c(c(-c3ccccc3CN(C)C)n4CC)CC(C)(C)COC(=O)[C@@H]3CCCN(N3)C2=O)C(C)C)C1 [Example A052] | 100 to 1000 | 100 to 1000 | 100 to 1000 | 10 to 100 | 100 to 1000 | 1 to 10 |
| C=CC(=O)N1CC[C@H](C(=O)N(C)[C@H](C(=O)N[C@H]2Cc3cc(O)cc(c3)-c3ccc4c(c3)c(c(-c3cccnc3COC)n4CC)CC(C)(C)COC(=O)[C@@H]3CCCN(N3)C2=O)C2CCCC2)C1 [Example A055] | 100 to 1000 | 100 to 1000 | 100 to 1000 | 10 to 100 | 1000 to 10000 | 1 to 10 |
| C=CC(=O)N1CC[C@H](C(=O)N(C)[C@H](C(=O)N[C@H]2Cc3cc(O)cc(c3)-c3ccc4c(c3)c(c(C3=C(COC)COCC3)n4CC)CC(C)(C)COC(=O)[C@@H]3CCCN(N3)C2=O)C(C)C)C1 [Example A058] | 1000 to 10000 | 100 to 1000 | 100 to 1000 | 10 to 100 | 1000 to 10000 | 1 to 10 |
| CCn1c(-c2cccnc2COC)c2c3cc(ccc31)-c1cc(O)cc(c1)C[C@H](NC(=O)[C@H](C(C)C)N(C)C(=O)[C@H]1CCN(C(=O)/C=C/CN3CCN(C)CC3)C1)C(=O)N1CCC[C@H](N1)C(=O)OCC(C)(C)C2 [Example A072] | 100 to 1000 | 100 to 1000 | 100 to 1000 | 10 to 100 | 100 to 1000 | 1 to 10 |
| C=CC(=O)N1CC[C@H](C(=O)N(C)[C@H](C(=O)N[C@H]2Cc3cc(O)cc(c3)-c3ccc4c(c3)c(c(-c3cncc(CN(C)C)c3)n4CC)CC(C)(C)COC(=O)[C@@H]3CCCN(N3)C2=O)C(C)C)C1 [Example A073] | 1000 to 10000 | 1000 to 10000 | 1000 to 10000 | 100 to 1000 | 1000 to 10000 | > 10 |
| C=CC(=O)N1CC[C@H](C(=O)N(C)[C@H](C(=O)N[C@H]2Cc3cc(O)cc(c3)-c3ccc4c(c3)c(c(-c3cncc(CCN(C)C)c3)n4CC)CC(C)(C)COC(=O)[C@@H]3CCCN(N3)C2=O)C(C)C)C1 [Example A081] | 1000 to 10000 | 1000 to 10000 | 1000 to 10000 | 100 to 1000 | 1000 to 10000 | > 10 |

Second part, the compound after the results:

| IC50 (KRAS G13C) [nM] | IC50 (KRAS G12S) [nM] | IC50 (KRAS G12V) [nM] | IC50 (KRAS G12C) [nM] | IC50 (KRAS WT) [nM] | IC50 (KRAS G12D) [µM] | SMILES |
| --- | --- | --- | --- | --- | --- | --- |
| 100 to 1000 | 100 to 1000 | 100 to 1000 | 10 to 100 | 100 to 1000 | 1 to 10 | C=CC(=O)N1CC[C@H](C(=O)N(C)[C@H](C(=O)N[C@H]2Cc3cc(O)cc(c3)-c3ccc4c(c3)c(c(-c3ccncc3COC)n4CC)CC(C)(C)COC(=O)[C@@H]3CCCN(N3)C2=O)C(C)C)C1 [Example A091] |
| 1000 to 10000 | 1000 to 10000 | 1000 to 10000 | 100 to 1000 | 1000 to 10000 | > 10 | C=CC(=O)N1CC[C@H](C(=O)N(C)[C@H](C(=O)N[C@H]2Cc3cc(O)cc(c3)-c3ccc4c(c3)c(c(-c3cccnc3CN(C)C)n4CC)CC(C)(C)COC(=O)[C@@H]3CCCN(N3)C2=O)C(C)C)C1 [Example A092] |
| < 10 | 100 to 1000 | 100 to 1000 | < 10 | 100 to 1000 | 1 to 10 | CCn1c(-c2cccnc2COC)c2c3cc(ccc31)-c1cc(O)cc(c1)C[C@H](NC(=O)[C@H](C(C)C)N(C)C(=O)C1CN(C(=O)C#CCN(C)C)C1)C(=O)N1CCC[C@H](N1)C(=O)OCC(C)(C)C2 [Example A097] |
| 1000 to 10000 | 1000 to 10000 | 1000 to 10000 | 100 to 1000 | > 10000 | > 10 | C=CC(=O)N1CC[C@H](C(=O)N(C)[C@H](C(=O)N[C@H]2Cc3cc(O)cc(c3)-c3ccc4c(c3)c(c(-c3cnn(C)c3)n4CC)CC(C)(C)COC(=O)[C@@H]3CCCN(N3)C2=O)C(C)C)C1 [Example A099] |
| 1000 to 10000 | 1000 to 10000 | 1000 to 10000 | 100 to 1000 | > 10000 | > 10 | C=CC(=O)N1CC[C@H](C(=O)N(C)[C@H](C(=O)N[C@H]2Cc3cc(O)cc(c3)-c3ccc4c(c3)c(c(-c3ccc(CN5CC[C@@H](O)C5)cc3)n4CC)CC(C)(C)COC(=O)[C@@H]3CCCN(N3)C2=O)C(C)C)C1 [Examples A001] |
